{"source": "patent US7316913B2", "about": "“Methods and means for influencing intracellular communication and intracellular organelle transport” (Stiftelsen Universitetsforskning Bergen, priority 2001, dated 2008)", "key": {"[1]": {"test_system": "VP22 intercellular exchange", "settings": "destruction of the filamentary actin; cited from earlier work"}, "[2]": {"test_system": "PC12 cells", "experiment": "Filipin staining of cellular cholesterol content", "format": "cell-based, rat", "settings": "5 millimolar methyl-β-cyclodextrin; filipin fluorescence, mean grey scale values", "procedure": "FIG. 18—the effect of cholesterol on the stability of TNTs. Two hours after passage of PC12 cells, the cell culture medium was exchanged for DMEM with 5, 8 or 10 millimolar saccharose (controls) or DMEM with 5, 8 or 10 mM methyl-β-cyclodextrin and the cells incubated for half an hour at 30° C. and 10% CO2. After the addition of WGA a three-dimensional analysis of 10 randomly selected microscopic fields was carried out (Olympus IX70, 100× objective, […]™ System, Piezo-z-stepper, in each case 40 sections) and the number of TNTs determined. […] Quantifications yielded a strong reduction of the TNT number with increasing methyl-β-cyclodextrin concentration; 40% reduction at 5 millimolar methyl-β-cyclodextrin; 93% reduction at 8 millimolar methyl-β-cyclodextrin; 100% at 10 millimolar methyl-β-cyclodextrin (c1). […] For this purpose, the methyl-β-cyclodextrin or saccharose containing DMEM of the analysed cell was exchanged with DMEM having 20 microgramm per millilitre filipin and 15 minutes later the intensity of the fluorescence staining analysed in vivo with a FITC/TRITC/DAPI filter set (Chroma, Brattleboro). In detail, after excitation at 400 nm four randomly selected microscopic fields were imaged and the mean grey scale values determined. […]"}, "[3]": {"test_system": "TNTs between PC12 cells", "experiment": "Number of TNTs in PC12 cells after cholesterol extraction (WGA staining, three-dimensional microscopy)", "format": "cell-based, rat", "settings": "half an hour, 2 h after passage, vs saccharose controls"}, "[4]": {"test_system": "PC12 cells", "experiment": "Thymidin G1/S cell cycle block: mitosis stadia and TNT formation", "format": "cell-based, rat", "settings": "2.5 mM thymidin, 14 hours before passage; analysed ca. 1 hour after passage", "procedure": "FIG. 12a—fluorescence microscopy image of PC12 cells ca. 1 hour after cell passage and staining with WGA, 20 minutes fixing in 4% paraformaldehyde/4% sucrose, 3 minutes treatment with 0.2% TRITON™ X-100 and nucleus staining with Dapi—left images in (a): the 14 hour long treatment of the cells before passage with 2.5 mM thymidin in the cell culture medium blocked the cells in the G1/S phase of the cell cycle and prevented a division of the cells; right images in (a): in non-treated PC12 cells (controls) there can be observed in the nucleus staining mitosis stadia (arrows). Despite the absence of mitosis stadia the thymidin treated PC12 cells form TNTs (arrow tips), (bar: 20 micrometer);\nVia a three-dimensional videomicroscopic analysis of suprarenal medulla cells in accordance with Example 1 point 2a, b there was detected the formation of an organized TNT based network between the cells, via which a syncytium arises (FIGS. 2e, f, FIGS. 3n-q2, FIGS. 4a-c) and organelles can be unidirectionally transferred (FIGS. 4d-h, FIG. 14). TNTs were, in accordance with Example 16 found in all to date investigated cells structure systems such as PC12 cells, HEK cells (FIG. 16a) and primary cultures of the medulla (FIG. 16b) and of the hippocampus (FIG. 16c). With a special colouring method, moreover, very long TNTs have been found. […]"}, "[5]": {"test_system": "TNTs between PC12 cells", "format": "cell-based, rat"}}, "data": [{"compound": "C=C1[C@@H](C)[C@H]2[C@H](Cc3ccccc3)NC(=O)[C@]23[C@H](OC(C)=O)/C=C/[C@@](C)(O)C(=O)[C@@H](C)C/C=C/[C@H]3[C@@H]1O", "note": "[cytochalasin D]", "values": [{"measurement": "intercellular exchange of VP22", "setting": "[1]", "value": "can be prevented"}]}, {"compound": "methyl-β-cyclodextrin", "values": [{"measurement": "reduction of the cellular cholesterol content", "setting": "[2]", "value": 20, "unit": "%"}, {"measurement": "reduction of the TNT number", "setting": "[3]; 8 millimolar methyl-β-cyclodextrin in DMEM", "value": 93, "unit": "%"}, {"measurement": "reduction of the TNT number", "setting": "[3]; 10 millimolar methyl-β-cyclodextrin in DMEM", "value": 100, "unit": "%"}]}, {"compound": "Cc1cn([C@H]2C[C@H](O)[C@@H](CO)O2)c(=O)[nH]c1=O", "note": "[thymidin]", "values": [{"measurement": "TNT formation retained in comparison with the controls", "setting": "[4]", "value": 86.5, "unit": "%"}, {"measurement": "number of mitosis stadia in comparison with the controls", "setting": "[4]", "value": 20, "unit": "%"}]}, {"compound": "C/C1=C/C(=O)O[C@@H]2C[C@@H](CC[C@H](C)/C=C\\CC1)O[C@@](O)([C@@H]1CSC(=O)N1)C2", "note": "[latrunculin B]", "values": [{"measurement": "effect on TNT formation and on TNTs present", "setting": "[5]", "value": "TNTs no longer form and TNTs present are destroyed"}]}]}
